According to publication PMC10010313, “A Phase I Study of Pelabresib (CPI-0610), a Small-Molecule Inhibitor of BET Proteins, in Patients with Relapsed or Refractory Lymphoma” (Cancer Research Communications, 2022):
Where “and” joins values, the source holds several entries; their conditions need not be identical. Equal values may be shown once. Read-outs that look alike come from different tables or passages of the source.

What was measured:
[1] = test system: patients with relapsed or refractory lymphoma; assay: Treatment-emergent adverse events, phase 1 study 0610–01; assay type: in vivo
Text: Study 0610–01 was a first-in-human phase 1, multi-center, open-label, dose-escalation study of pelabresib (CPI-0610) in patients with relapsed or refractory lymphoma (NCT01949883).
Eligible patients for treatment with pelabresib were adults with relapsed non-Hodgkin or Hodgkin lymphoma after at least one prior therapy or who were not eligible for high-dose chemotherapy and autologous stem cell transplantation or had refused high-dose chemotherapy and autologous stem cell transplantation. Patients were required to have platelet count ≥75 × 10^9/L, absolute neutrophil count ≥1.0 × 10^9/L, and Eastern Cooperative Oncology Group performance status of 2 or less.
(§1) Pelabresib was administered once daily (QD) for 14 days followed by a 7-day break, in continuous 21-day cycles to prevent/ameliorate thrombocytopenia. Cohorts of 3 to 6 patients were sequentially enrolled with increasing doses of pelabresib (6, 12, 24, 48, 80, 120, 170, 230, and 300 mg with the capsule formulation and 125 mg and 225 mg with the micronized tablet formulation) until the MTD was determined. Pelabresib was administered under fasting conditions (no food intake 2 hours before until 1 hour after study drug administration).
(§2) The primary objective of the study was to determine the MTD of pelabresib with characterization of dose-limiting toxicities (DLT) as a primary endpoint. Secondary objectives included adverse events (AE) and serious adverse events (SAE); tumor response according to 2007 Revised Response Criteria for Malignant Lymphoma ([13]); plasma concentration of pelabresib; PK parameters; changes in expression of MYC and other genes sensitive to BET inhibition; and changes in levels of selected mRNAs that are expressed in PBMCs and are sensitive to BET inhibition.
(§3) The MTD of pelabresib was defined as the highest dose that could be given without causing DLT in 33% or more of the patients treated at that dose (capsules or tablets). Dose-escalation followed a traditional “3 + 3” design based on the frequency of DLT. All patients who were treated with at least 1 dose of pelabresib were included in the Safety Population and used for all tabulations of demographic information, baseline characteristics, safety, PK, pharmacodynamic, and efficacy analyses.

[2] = test system: patients with relapsed or refractory lymphoma; assay: Dose-limiting toxicities / MTD determination (3 + 3 dose escalation); assay type: in vivo
Method: as §1, §2, §3

[3] = test system: relapsed or refractory lymphoma; assay: Tumor response, 2007 Revised Response Criteria for Malignant Lymphoma; assay type: in vivo, human
Text: as §2, §3

IL8 = IL8 mRNA expression in patient whole blood (qPCR); assay type: in vivo, human
Text: (§4) Whole (peripheral) blood samples were also collected at selected time points that coincided with PK sampling. Blood from patients was drawn into PAXgene blood RNA tubes (Becton Dickinson) at the clinical sites and shipped frozen to the Massachusetts General Hospital (MGH, Boston, MA) for processing. RNA was purified using a PAXgene Blood RNA Kit IVD (Qiagen) according to the manufacturer's protocol and quantitated using a Nanodrop 8000 (Thermo Scientific). RNA isolated from PBMCs was used to synthesize cDNA for qPCR analysis and gene expression was assessed by qPCR using a CCR1 or IL8 TaqMan assay. Housekeeping genes were assessed using B2M TaqMan assay, PPIB Universal Probe Library (UPL) or TaqMan assay. Relative gene expression for CCR1 and IL8 was determined after normalization to the geometric mean of the two housekeeping genes (B2M and PPIB).

CCR1 = CCR1 mRNA expression in patient whole blood (qPCR); assay type: in vivo, human
Text: as §4

[4] = test system: IL8 and CCR1 gene expression; assay: PK/PD analysis of maximum gene suppression versus exposure (Emax model); assay type: in vivo, human
Method: To further explore the relationship between pelabresib exposure and suppression of gene expression, individual maximum gene suppression (the nadir of individual gene expression versus time profiles) was plotted as a continuous function of individual Cmax and AUC for both CCR1 and IL8. […] In total, based on this analysis, pharmacodynamic responses of at least 50% suppression in gene expression are evident at AUC and Cmax as low as 4,000 ng/hr/mL and 500 ng/mL, respectively. These exposures were achieved on average at capsule doses of 80 mg and above and were exceeded at both tablet doses.

platelet count = assay: Platelet count values versus pelabresib dose; assay type: in vivo, human; details: QD 14 days on, 7 days off
Text: To accommodate for different baseline platelet count values in different patients, changes in platelet count values were expressed as a fraction or ratio of the baseline value. There was a strong correlation between the Day 14:Day 1 platelet count ratio and pelabresib dose (R^2 = 0.81).

[5] = human, in vivo
Method: (§5) To characterize the plasma PK of pelabresib for the first dose and at steady state for multiple dosing, blood samples were taken before and at 0.5, 1, 1.5, 2, 3, 4, 6, 8, and 24 hours after the initial dose; before dosing on Day 8; before and at 0.5, 1, 1.5, 2, 3, 4, 6, 8, 24, 48, 72, 96, and 120 hours after the Day 14 dose; and prior to dosing on Day 1 of Cycle 2. Blood samples were centrifuged within 30 minutes of collection to harvest the plasma which was promptly stored in cryovials maintained at −80°C. The concentration of CPI-0610 in plasma samples was determined by reverse-phase high performance liquid chromatography with tandem mass spectrometric detection. The assay was validated and applied to the analysis of study samples according to the recommendations in the current FDA guidance. At the lowest concentration included in the calibration curves, which was 0.25 ng/mL, interday accuracy was within 0.3% of the nominal concentration and the precision was 3.0%. Interday accuracy ranged from 99.9 to 101.2% and the precision ranged from 4.0 to 6.0% for all other calibration standards. Actual time points were calculated as the difference between the blood sample collection time and the time that the drug was taken. The plasma concentration–time data were analyzed by noncompartmental methods using WinNonlin version 5.0.1 (Pharsight Corp). Area under the plasma concentration–time curve from the time of dosing to the time of last sample collected prior to administration of the next dose (AUC0–24) was estimated using the linear-log trapezoidal method. Apparent oral clearance (CL/F) was calculated as the dose divided by the AUC0–24 for the dose given on Day 14. Pharmacokinetic parameters are reported as the geometric mean [geometric coefficient of variation (CV%)] of the values for individual patients at each dose level unless otherwise indicated.

MYC = test system: MYC; design: method as in PMID 21949397; details: cited from earlier work
[6] = test system: ABC- diffuse large B-cell lymphoma (DLBCL) and Burkitt lymphoma (BL) cell lines; details: preclinical studies; cited from earlier work
NF-κB signaling = details: preclinical studies; cited from earlier work
[7] = crystalline form of pelabresib; cited from earlier work
[8] = design: method as in PMID 21949397; details: cited from earlier work
clinical = details: human, in vivo
Method: as §5

[9] = Plasma pharmacokinetics (LC-MS/MS, noncompartmental)
Method: as §5

[10] = including both tablet dose levels
[11] = whole blood, 2, 6 and 8 hours after administration
[12] = individual maximum gene suppression, inhibitory Emax model

## Cc1noc2c1-c1ccccc1C(c1ccc(Cl)cc1)=N[C@H]2CC(N)=O [pelabresib]
[1]; cause disease progression, none considered related to the investigational product
  Patients who died while on study: 9 (14.1%) patients (%)
[1]; grade 5
  SAE disease progression: 7 patients
[1]; human, in vivo
  Anemia of Grade 3 or higher: 7 (10.9%) patients (%)
  Diarrhea of Grade 3 or higher: 4 (6.3%) patients (%)
  Gastrointestinal TEAEs: 43 (67.2%) patients (%)
  Patients with at least 1 TEAE: 64 patients
  Patients with at least 1 TEAE of Grade 3 or higher intensity: 44 (68.8%) patients (%)
  SAE diarrhea: 4 patients
  SAE disease progression: 1 patient
  SAE pain: 2 patients
  SAE pneumonia: 2 patients
  TEAE Anemia: 16 (25.0) n (%)
  TEAE Decreased appetite: 17 (26.6) n (%)
  TEAE Diarrhea: 12 (18.8) n (%)
  TEAE Dysgeusia: 10 (15.6) n (%)
  TEAE Fatigue: 23 (35.9) n (%)
  TEAE Hyperglycemia: 12 (18.8) n (%)
  TEAE Lymphopenia: 13 (20.3) n (%)
  TEAE Nausea: 18 (28.1) n (%)
  TEAE Thrombocytopenia events: 29 (45.3) n (%)
  TEAE Vomiting: 13 (20.3) n (%)
  TEAEs that led to treatment discontinuation: 9 (14.1%) patients (%)
  Thrombocytopenia events of Grade 3 or higher: 13 (20.3%) patients (%)
  Treatment-emergent SAEs: 27 (42.2%) patients (%)
[2]; human, in vivo, 14 days
  Recommended phase 2 dose (RP2D): 125 mg
[2]; human, in vivo, 21 days
  DLTs: gastrointestinal (GI) events: 2
  DLTs: hematologic events: 5
  DLTs: rash: 1
  Total DLT events considered for dose-escalation: 8
[2]; tablet, QD for 14 days with a 7-day break
  MTD: 225 mg
[3]; 4 of 64 patients
  Overall response rate (CR + PR): 6.2%
[3]; 64 patients
  Patients with prolonged (>6 months) stable disease: 5 patients
[3]; Overall N = 64
  Best overall response CR: 2 (3.1%) n (%) and 2 (3.1) n (%)
  Best overall response PR: 2 (3.1%) n (%) and 2 (3.1) n (%)
  Best overall response SD: 21 (32.8%) n (%) and 21 (32.8) n (%)
[3]; Overall N = 64, all doses and formulations
  Overall response rate (CR + PR): 4 (6.2) n (%)
[3]; QD capsule
  Lowest dose at which complete remission was achieved: 48 mg
[3]; patients with CR or PR
  Median duration of response (CR or PR), (range): 8.4 (6.1–46.1) weeks
  Time to treatment (CR or PR): 4–18 cycles
[3]; patients with CR or PR, 21-day cycles
  Time to response (CR or PR): 2–6 cycles
IL8; capsule
  Dose level with maximum reduction of IL8 expression: 120 mg
IL8; [10]
  Capsule doses at whose exposures suppression of IL8 was much more apparent: greater than or equal to 120 mg
IL8; whole blood
  Earliest time of decreased IL8 expression postdose: ≤ 2 h
IL8; [11]
  Capsule dose above which appreciable changes in expression of IL8 were shown: above 120 mg
CCR1; [10]
  Capsule doses at whose exposures suppression of CCR1 was much more apparent: ≥ 170 mg
CCR1; whole blood
  Earliest time of decreased CCR1 expression postdose: ≤ 2 h
CCR1; [11]
  Capsule dose above which appreciable changes in expression of CCR1 were shown: > 170 mg
[4]; exceeded at both tablet doses
  Capsule doses at which these exposures (AUC 4,000, Cmax 500) were achieved on average: ≥ 80 mg
[4]; [12]
  AUC at which at least 50% suppression in gene expression is evident: ≥ 4,000 ng/hr/mL
  Cmax at which at least 50% suppression in gene expression is evident: ≥ 500 ng/mL
Platelet count
  Character of decreases in platelet count values: dose dependent, reversible, and non-cumulative
[5]
  Factor to convert tablet doses to capsule doses: 1.34
  Range of time of peak plasma concentrations: 0.9 to 7.9 h
[5]; 225 mg
  Mean AUC0–24: 20,700 ng/h/mL
[5]; 14 days
  Accumulation at most: ≤ 40%
  Accumulation, mean (±SD): 4.3 ± 1.0%
MYC; single 30 mg/kg oral dose ref 11
  Time by which MYC expression had returned to its baseline value: ≤ 12 h
MYC; single 30 mg/kg oral dose, 4 hours postdosing, immunodeficient mice ref 11
  Maximum inhibition of MYC expression in tumor tissue: 75%
MYC; single 30 mg/kg oral dose, earliest postdosing time point assessed ref 11
  Time of maximum inhibition of MYC expression: 4 h
[6]
  Effect on viability: loss of viability
NF-κB signaling
  Effect on NF-κB signaling activity: downregulation
[7]
  Aqueous solubility: low
[8]
  Clearance in mice: rapid clearance
clinical; 225 mg
  Cmax: 2020 ng/mL
clinical; Exposure (bioavailability) of tablet greater than capsule
  bioavailability: 60%
clinical; Half-life (mean apparent terminal phase)
  half-life: ~900 min
clinical; Median time of peak plasma concentrations
  Tmax: 1.9 h
clinical; Median time to maximum plasma concentrations
  Tmax: 2 h
clinical; Range of time of peak plasma concentrations
  Tmax: 0.5 to 7.4 h
clinical; Terminal half-life, geometric mean (geometric CV)
  half-life: 918 min
[9]; capsule formulation, 14 days of continuous QD dosing
  Accumulation, mean (±SD): 20.5 ± 7.2%
[9]; human, plasma, oral, Terminal half-life, geometric mean (geometric CV), capsule
  half-life: 696 min
[9]; in vivo
  Tablet dose approximately corresponding to the 120 mg capsule dose level: ~75 mg
[9]; tablet dosage form, Day 14
  Apparent oral clearance, geometric mean (geometric CV): 12.3 (27.2%) L/h
